# Test results published in PubChem BioAssay AID1902 (Broad Institute, 2009).
# Active and inactive are the calls of the source.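 How the source made its calls: active means EC50 no more than a set limit of log units above the highest dose; inactive means the rest.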
# Target: S. pyogenes SKKanGAS, kanamycin survival, BacTiterGlo, 6 h
# Assay: SKKanGAS survival reduction under kanamycin, dose response, streptokinase promoter inhibitor project, SKKanGAS strain, luminescence, dose confirmation (AID 1902);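 further: lower survival reflects blocked streptokinase promoter driving kanamycin resistance gene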
row,Compound,EC50
1,CC[n+]1c(/C=C/N(C)c2ccccc2)n(-c2ccccc2)c2ccc(-c3nc4ccccc4s3)cc21,3.61 µM
2,CCOP(=O)(Cc1ccc(C(=O)CC)o1)OCC,> 15 µM (inactive)
3,O=[N+]([O-])c1ccc(/C=N/NC(=S)Nc2ccc(Cl)cc2Cl)s1,1.75 µM
4,COc1ccc(/C=C/C(=O)NC(=S)NNC(=O)c2ccco2)cc1,1.67 µM
5,COc1ccc(-c2cn[nH]c2-c2ccc(OC)cc2)cc1,6.64 µM
6,COc1ccc(-c2cc(C(=O)NNC(=S)NC(=O)c3c(-c4ccccc4)noc3C)[nH]n2)cc1,0.2 µM
7,Oc1c(CN2CCN(c3ccccc3)CC2)cc(Br)c2cccnc12,1.67 µM
8,Cc1cc(C)c(S(=O)(=O)/N=C2\C=C(Nc3ccc(C(=O)O)cc3)C(=O)c3ccccc32)c(C)c1,1.16 µM
9,CCOC(=O)c1cnc(-n2nc(C)cc2C)nc1NC(C)c1ccccc1 (centres undefined),2.74 µM
10,NC(=O)N=Nc1c2[nH]c3ccccc3nc-2c2ccccc12,5.32 µM
11,O=C(CN1C(=O)S/C(=C\C=C\c2ccccc2)C1=O)Nc1ccccc1C(=O)O,5.62 µM
12,CC(C)Nc1nc(Oc2cccc(Cl)c2Cl)cc(C(F)(F)F)n1,5.29 µM
13,O=C(Nc1cccc(Cl)c1)Nc1csc([N+](=O)[O-])c1,8.11 µM
14,Cc1cc(SCC(=O)N/N=C/c2ccc(O)cc2O)c(C)cc1Br,1.93 µM
15,CCOc1ccc(C(=O)NC(=S)Nc2ccc(N3CCOCC3)c(Cl)c2)cc1[N+](=O)[O-],0.714 µM
16,O=C(N/N=C/c1c[nH]c2ccccc12)c1cc(-c2ccc(-c3ccccc3)cc2)n[nH]1,2.89 µM
17,COc1cccc(/C=N/Nc2nc(Nc3ccccc3)nc(-n3nc(C)cc3C)n2)c1O,1.97 µM
18,O=C(N/N=C/c1c(O)n(Cc2ccco2)c(=O)[nH]c1=O)c1ccccc1O,2.81 µM
19,N[C@@H](C(=O)N[C@@H]1C(=O)N2C(C(=O)O)=C(Cl)CS[C@H]12)c1ccccc1,0.465 µM
20,C=C(C)COc1ccc(-c2[nH]ncc2Oc2cccc(OC)c2)c(O)c1,5.93 µM
21,COc1ccccc1OCCCn1c(C)c(C#N)c2ccccc21,7.08 µM
22,CCc1ccc(-c2cc(C)no2)cc1S(=O)(=O)Nc1cccc(CN2CCCC2)c1,> 15 µM (inactive)
23,CC1CC(C)CN(S(=O)(=O)c2ccc(C(=O)Nc3nnc(C4CC4)o3)cc2)C1 (centres undefined),1.03 µM
24,C[N+](C)(C)c1ccc(/C=N/Nc2nc(Cl)c(C#N)c(Cl)c2Cl)cc1,> 15 µM (inactive)
25,Oc1cc2ccccc2cc1-c1n[nH]c(=S)o1,11.1 µM
26,Cc1ccc2c(c1)=C(c1sc(N(C)c3ccc(O)cc3)nc1O)C(=O)N=2,6.72 µM
27,Cn1ncc(Cl)c1C(=O)N1CCC2(CC1)OCCO2,> 15 µM (inactive)

row,Compound,EC50
1,CCSc1nnc(NC(=O)c2ccc3ccccc3n2)s1,2.53 µM
2,Cc1cc2oc(=O)cc(CN(C)Cc3ccccc3)c2cc1C(C)C,4.52 µM
3,COc1ccc(NP(=O)(Oc2ccc(Cl)cc2)Oc2ccc(Cl)cc2)cc1OC,7.25 µM
4,Cc1nnc(SCC2=C(C(=O)O)N3C(=O)C(NC(=O)Cn4nc(C(F)F)c(Cl)c4C)C3SC2)s1 (centres undefined),< 0.06 µM
5,Cc1[nH]n2c(=O)cc(-c3ccc([N+](=O)[O-])cc3)nc2c1-c1ccccc1,0.319 µM
6,CCCc1sc(N/N=C/c2ccccn2)nc1-c1ccc(F)cc1,9.33 µM
7,CC[C@@H](C)[C@H](NC(=O)OC(C)(C)C)c1nnc(S(=O)(=O)Cc2cc(C)ccc2C)o1,9.66 µM
8,Cc1cc(-c2c(C)[nH]n(-c3ccc(Cl)cc3)c2=O)n[nH]1,1.78 µM
9,COc1ccc(NC(=S)N=Nc2c(O)[nH]c3ccccc23)cc1,1.09 µM
10,CCOc1ccc(-c2nc3n(c(=O)c2C#N)CCCS3)cc1,7.33 µM
11,O=S(=O)(Cc1nnnn1-c1ccccc1)c1ccc(F)cc1,> 15 µM (inactive)
12,CCOc1c(OC(C)=O)ccc(/C=C/c2ccc3cccc(OC(C)=O)c3n2)c1[N+](=O)[O-],1.6 µM
13,CC(C)CCn1c(=O)c(C(=O)N/N=C/c2cccc(F)c2)c(O)c2ccccc21,1.17 µM
14,C/C(=N\NC(=S)NCCc1ccccc1)c1ccc(Cl)cc1Cl,6.56 µM
15,CCCSc1nsc(NC(=O)Nc2ccc(F)cc2F)n1,5.66 µM
16,COc1cccc(C(=O)N/N=C(/c2ccccc2)c2ccccn2)c1,8.86 µM
17,Cc1cccc(C)c1OCC(=O)NNC(=S)NC(=O)C1CC1,0.304 µM
18,CN(Cc1ccc(N(C)C)cc1)C(=O)c1cc2ccccc2o1,> 15 µM (inactive)
19,O=C1c2ccccc2CC1(Cc1ccccc1)Cc1ccccc1,4.35 µM
20,Cc1ccccc1N1CCN(S(=O)(=O)c2nnc(NC(=O)c3ccco3)s2)CC1,4.46 µM
21,O=C(Nc1nc(-c2ccccn2)cs1)C1CC1,1.33 µM
22,COc1ccc2oc(C(=O)Nc3nc(-c4ccccn4)cs3)c(C)c2c1,1.19 µM
23,CCOC(=O)c1c(NC(=O)c2cccs2)sc(CC)c1-c1cccs1,13.1 µM
24,COc1c(CC=C(C)C)cc(C2CC(=O)c3c(O)cc(O)cc3O2)cc1CC=C(C)C (centres undefined),1.99 µM
25,Cc1ccc2nc(N3C(=O)CNC3=S)sc2c1,4.32 µM
26,O=C(CNC(=O)c1ccc(F)cc1)N/N=C/c1cc(Br)ccc1OCc1ccccc1,12.2 µM
27,O=C(/C=C/c1ccccc1)NCCc1ccccc1,> 15 µM (inactive)
